Assay [1] in a line: intracellular Trypanosoma cruzi inhibitors in host cells – cell-based, plate reader, cherry-pick samples, set 3, dose response (AID 651818).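 Also: compounds incubated with infected cells for about four days.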 In kind it is functional.
Assay [2] addresses Prothrombin (Homo sapiens, UniProt P00734). In words: Thrombin 1536 HTS Dose Response Confirmation. [Related pubchem assays: 1046 (Thrombin 1536 HTS; hits were confirmed in this assay)]. In kind it is functional.
For assay [3], the target named is Ras and Rab interactor 1/Tyrosine-protein kinase ABL1 (Homo sapiens, UniProt P00519+Q13671). The assay is classed as functional.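 Also: biochemical TR-FRET dose-response test measuring inhibition of binding between Rin1 and Abl proteins.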
Ras and Rab interactor 1/Tyrosine-protein kinase ABL1, sequence (P00519 whole entry): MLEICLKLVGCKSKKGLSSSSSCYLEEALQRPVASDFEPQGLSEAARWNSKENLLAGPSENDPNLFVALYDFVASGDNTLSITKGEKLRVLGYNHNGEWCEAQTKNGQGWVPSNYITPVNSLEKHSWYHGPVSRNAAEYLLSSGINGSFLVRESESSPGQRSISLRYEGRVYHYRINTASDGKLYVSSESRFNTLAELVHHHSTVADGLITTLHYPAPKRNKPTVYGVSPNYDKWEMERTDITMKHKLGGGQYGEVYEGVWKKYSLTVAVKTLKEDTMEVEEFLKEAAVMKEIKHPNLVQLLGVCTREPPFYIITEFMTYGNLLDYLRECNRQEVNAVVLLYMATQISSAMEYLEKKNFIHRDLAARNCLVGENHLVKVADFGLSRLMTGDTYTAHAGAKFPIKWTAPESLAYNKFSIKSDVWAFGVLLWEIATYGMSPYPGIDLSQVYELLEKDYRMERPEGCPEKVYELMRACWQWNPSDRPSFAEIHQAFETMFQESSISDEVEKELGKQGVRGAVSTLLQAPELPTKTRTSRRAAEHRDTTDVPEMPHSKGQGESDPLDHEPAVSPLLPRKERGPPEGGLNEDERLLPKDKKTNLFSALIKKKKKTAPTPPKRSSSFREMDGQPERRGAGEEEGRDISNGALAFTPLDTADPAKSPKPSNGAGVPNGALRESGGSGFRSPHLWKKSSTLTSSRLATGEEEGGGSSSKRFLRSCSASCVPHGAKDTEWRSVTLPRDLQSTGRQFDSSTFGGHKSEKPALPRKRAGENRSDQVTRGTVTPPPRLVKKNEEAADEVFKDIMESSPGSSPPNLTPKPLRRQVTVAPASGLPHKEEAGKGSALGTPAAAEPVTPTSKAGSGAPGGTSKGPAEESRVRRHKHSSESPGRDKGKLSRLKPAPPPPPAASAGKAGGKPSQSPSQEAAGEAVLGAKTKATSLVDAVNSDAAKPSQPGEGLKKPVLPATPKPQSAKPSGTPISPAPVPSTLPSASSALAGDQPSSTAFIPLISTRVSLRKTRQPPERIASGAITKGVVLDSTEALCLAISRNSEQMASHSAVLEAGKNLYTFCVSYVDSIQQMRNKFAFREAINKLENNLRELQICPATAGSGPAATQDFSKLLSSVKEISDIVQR
Ras and Rab interactor 1/Tyrosine-protein kinase ABL1, sequence (Q13671 whole entry): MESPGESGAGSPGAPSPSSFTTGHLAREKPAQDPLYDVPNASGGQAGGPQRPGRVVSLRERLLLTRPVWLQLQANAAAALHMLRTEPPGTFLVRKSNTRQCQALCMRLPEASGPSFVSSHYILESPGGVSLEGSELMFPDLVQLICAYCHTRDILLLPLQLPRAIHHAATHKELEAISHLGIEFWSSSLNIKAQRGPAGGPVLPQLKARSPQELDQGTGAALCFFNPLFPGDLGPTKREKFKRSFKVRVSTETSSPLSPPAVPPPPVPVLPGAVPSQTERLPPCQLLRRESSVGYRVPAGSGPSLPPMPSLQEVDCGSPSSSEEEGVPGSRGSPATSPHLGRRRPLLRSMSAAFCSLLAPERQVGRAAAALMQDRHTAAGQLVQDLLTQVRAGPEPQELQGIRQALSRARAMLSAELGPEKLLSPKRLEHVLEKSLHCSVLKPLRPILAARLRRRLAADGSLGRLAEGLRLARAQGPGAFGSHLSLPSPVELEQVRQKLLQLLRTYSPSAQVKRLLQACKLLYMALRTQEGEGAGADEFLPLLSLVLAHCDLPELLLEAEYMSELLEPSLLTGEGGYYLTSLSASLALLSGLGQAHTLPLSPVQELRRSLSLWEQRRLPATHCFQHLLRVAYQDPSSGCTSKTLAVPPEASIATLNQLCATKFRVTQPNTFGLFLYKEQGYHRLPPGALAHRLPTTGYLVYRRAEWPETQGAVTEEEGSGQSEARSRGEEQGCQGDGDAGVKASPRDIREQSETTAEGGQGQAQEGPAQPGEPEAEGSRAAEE
Assay [4] addresses T1, Long-chain-fatty-acid--AMP ligase FadD28 (Mycobacterium tuberculosis, UniProt P9WQ59).
T1 sequence (P9WQ59 whole entry): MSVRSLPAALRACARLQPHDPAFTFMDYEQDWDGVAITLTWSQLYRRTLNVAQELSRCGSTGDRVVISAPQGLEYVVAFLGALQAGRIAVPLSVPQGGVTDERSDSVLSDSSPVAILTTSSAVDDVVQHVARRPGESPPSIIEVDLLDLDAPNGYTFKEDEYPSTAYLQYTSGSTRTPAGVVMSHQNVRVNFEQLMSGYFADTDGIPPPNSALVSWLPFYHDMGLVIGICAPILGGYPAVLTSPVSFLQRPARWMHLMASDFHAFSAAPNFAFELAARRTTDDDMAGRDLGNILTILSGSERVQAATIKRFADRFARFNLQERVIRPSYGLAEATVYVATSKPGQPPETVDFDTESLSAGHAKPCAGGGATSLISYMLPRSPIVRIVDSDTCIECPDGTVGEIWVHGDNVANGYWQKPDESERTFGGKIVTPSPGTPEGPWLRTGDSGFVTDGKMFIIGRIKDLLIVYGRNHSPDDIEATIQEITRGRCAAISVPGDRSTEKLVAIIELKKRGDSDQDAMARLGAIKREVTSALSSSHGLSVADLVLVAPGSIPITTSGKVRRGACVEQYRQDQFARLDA
In words: Fluorescence polarization aasay to screen for inhibitors that compete for the binding of FadD28 to a bisubstrate Measured in Biochemical System Using Plate Reader - 2147-01_Inhibitor_Dose_CherryPick_Activity. In kind it is functional, Mycobacterium tuberculosis H37Rv. On the technique in general: In fluorescence polarisation assays a small probe gives low polarisation when free and higher when bound to something large.

The target in assay [5] is T2, DNA repair protein RAD52 homolog (Homo sapiens, UniProt P43351).
T2 sequence (P43351 whole entry): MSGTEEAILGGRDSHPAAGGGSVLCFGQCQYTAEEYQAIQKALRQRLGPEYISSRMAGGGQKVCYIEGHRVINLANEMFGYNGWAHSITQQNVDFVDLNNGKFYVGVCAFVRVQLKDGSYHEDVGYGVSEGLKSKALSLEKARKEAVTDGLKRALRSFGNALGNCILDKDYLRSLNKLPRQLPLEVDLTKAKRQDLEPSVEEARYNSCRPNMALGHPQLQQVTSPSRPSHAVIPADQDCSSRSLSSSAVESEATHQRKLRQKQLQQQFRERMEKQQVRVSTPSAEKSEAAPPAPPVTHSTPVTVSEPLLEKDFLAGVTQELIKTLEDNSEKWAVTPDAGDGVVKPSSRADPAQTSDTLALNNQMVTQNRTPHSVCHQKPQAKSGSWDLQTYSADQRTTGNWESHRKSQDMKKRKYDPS
In kind it is functional, biochemical.

Assay [6] has as its target FAD-linked sulfhydryl oxidase ALR (Homo sapiens, UniProt P55789). In words: ALR-catalysed DTT oxidation blockers – biochemical, H2O2 detection, luminescence, cherry-pick, dose response (AID 493248).
For assay [7], the system named is BJ. Briefly: BJ-TERT-LT-ST fibroblast viability loss – cell-based, RAS-independent, luminescence, dose response (AID 1935).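 Also: BJ fibroblasts immortalized with TERT plus LT and ST oncogenes.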 The assay is classed as functional. The settings on record: Homo sapiens.
Assay [8] in a line: DRD fibroblast viability loss – cell-based, non-viral oncogenic, luminescence, dose response (AID 1934). In kind it is functional. The settings on record: Homo sapiens.
Assay [9] concerns BJ. In words: BJ-TERT fibroblast viability loss – cell-based, RAS-independent, luminescence, dose response (AID 1933). The settings on record: Homo sapiens. In kind it is functional.
Assay [10] has as its system BJ. In words: growth inhibition of engineered Ras-driven BJ cells – cell-based, alamar blue fluorescence, cherrypicked samples, dose response (AID 2631).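 Also: confirmatory dose-response assay in RAS-dependent BJ fibroblasts engineered with TERT, LT and ST, with cytotoxicity read by fluorescence.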 The assay is classed as functional. Conditions: Homo sapiens.
For assay [11], the system named is BJ. Briefly: cells. The assay is classed as functional, cell-based. The settings on record: Homo sapiens.
The target in assay [12] is Voltage-dependent T-type calcium channel subunit alpha-1H (Homo sapiens, UniProt O95180). In kind it is functional.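 Also: channel activity triggered by adding a high calcium stimulation buffer.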
Voltage-dependent T-type calcium channel subunit alpha-1H, sequence (O95180 whole entry): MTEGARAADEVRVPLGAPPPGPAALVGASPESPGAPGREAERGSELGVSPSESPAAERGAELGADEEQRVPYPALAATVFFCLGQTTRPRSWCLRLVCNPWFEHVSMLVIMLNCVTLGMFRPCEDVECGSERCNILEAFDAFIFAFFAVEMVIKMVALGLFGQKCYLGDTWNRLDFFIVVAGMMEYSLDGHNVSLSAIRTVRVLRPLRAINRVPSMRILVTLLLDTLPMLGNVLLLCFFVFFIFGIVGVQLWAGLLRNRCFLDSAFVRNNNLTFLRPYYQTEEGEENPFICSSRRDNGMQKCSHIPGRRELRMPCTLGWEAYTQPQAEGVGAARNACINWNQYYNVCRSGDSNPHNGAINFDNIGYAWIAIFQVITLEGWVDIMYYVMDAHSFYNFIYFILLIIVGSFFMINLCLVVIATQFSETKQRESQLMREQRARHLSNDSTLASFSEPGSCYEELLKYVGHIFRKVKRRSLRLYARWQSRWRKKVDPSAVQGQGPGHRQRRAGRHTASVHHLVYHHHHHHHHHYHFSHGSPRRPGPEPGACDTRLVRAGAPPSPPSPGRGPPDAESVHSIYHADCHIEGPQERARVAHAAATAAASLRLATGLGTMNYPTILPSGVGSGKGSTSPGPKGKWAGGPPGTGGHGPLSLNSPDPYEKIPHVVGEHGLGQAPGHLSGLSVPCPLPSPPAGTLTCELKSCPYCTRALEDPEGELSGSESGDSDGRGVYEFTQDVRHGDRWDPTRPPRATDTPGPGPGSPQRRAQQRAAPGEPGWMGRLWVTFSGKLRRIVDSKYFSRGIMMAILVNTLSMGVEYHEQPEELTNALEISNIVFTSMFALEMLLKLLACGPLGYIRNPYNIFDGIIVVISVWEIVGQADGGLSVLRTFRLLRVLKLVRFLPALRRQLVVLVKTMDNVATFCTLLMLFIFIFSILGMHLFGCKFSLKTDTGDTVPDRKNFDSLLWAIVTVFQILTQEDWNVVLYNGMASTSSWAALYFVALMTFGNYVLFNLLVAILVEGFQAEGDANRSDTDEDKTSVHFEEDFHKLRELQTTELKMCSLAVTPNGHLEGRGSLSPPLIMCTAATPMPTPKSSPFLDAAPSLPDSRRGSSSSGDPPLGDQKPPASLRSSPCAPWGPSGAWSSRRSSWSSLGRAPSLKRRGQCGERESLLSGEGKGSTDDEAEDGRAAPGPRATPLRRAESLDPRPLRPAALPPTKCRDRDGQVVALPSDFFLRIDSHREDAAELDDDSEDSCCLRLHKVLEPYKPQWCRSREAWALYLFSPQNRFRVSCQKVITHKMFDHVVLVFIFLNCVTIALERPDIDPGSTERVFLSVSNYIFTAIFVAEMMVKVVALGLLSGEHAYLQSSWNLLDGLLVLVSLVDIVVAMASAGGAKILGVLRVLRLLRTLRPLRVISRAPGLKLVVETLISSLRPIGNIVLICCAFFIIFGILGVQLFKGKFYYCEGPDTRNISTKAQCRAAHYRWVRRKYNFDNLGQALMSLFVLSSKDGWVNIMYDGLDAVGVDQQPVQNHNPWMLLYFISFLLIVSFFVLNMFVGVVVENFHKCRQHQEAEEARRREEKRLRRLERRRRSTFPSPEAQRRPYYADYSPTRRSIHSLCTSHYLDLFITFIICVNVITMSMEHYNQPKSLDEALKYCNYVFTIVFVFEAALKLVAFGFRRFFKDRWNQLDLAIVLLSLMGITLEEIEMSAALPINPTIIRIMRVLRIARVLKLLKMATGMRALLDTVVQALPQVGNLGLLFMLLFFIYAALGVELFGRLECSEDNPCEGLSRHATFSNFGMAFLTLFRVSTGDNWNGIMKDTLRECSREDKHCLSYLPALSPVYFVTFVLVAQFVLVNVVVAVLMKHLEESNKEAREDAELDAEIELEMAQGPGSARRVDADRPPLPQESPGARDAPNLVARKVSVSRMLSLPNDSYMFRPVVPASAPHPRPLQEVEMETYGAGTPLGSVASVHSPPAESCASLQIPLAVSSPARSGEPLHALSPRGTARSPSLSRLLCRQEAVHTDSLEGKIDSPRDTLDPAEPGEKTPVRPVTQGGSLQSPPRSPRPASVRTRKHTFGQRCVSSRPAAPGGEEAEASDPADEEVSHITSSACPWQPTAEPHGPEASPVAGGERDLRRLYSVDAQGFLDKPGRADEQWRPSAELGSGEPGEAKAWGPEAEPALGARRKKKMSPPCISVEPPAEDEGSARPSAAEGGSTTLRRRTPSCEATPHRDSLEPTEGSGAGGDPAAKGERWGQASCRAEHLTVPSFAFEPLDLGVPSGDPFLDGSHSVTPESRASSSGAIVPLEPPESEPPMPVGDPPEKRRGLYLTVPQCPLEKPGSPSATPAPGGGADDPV

This is an account of results in ChEMBL document CHEMBL1201862, “PubChem BioAssay data set” (2004).

Activity calls are given as the source filed them.

FAD-linked sulfhydryl oxidase ALR, sequence (P55789 whole entry): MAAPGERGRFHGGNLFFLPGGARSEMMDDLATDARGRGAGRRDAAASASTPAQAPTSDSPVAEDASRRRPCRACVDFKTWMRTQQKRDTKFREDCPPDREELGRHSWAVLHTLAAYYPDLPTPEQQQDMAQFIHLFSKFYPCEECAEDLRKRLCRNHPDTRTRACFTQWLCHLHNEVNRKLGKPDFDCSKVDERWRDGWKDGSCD

Turning to `C[C@H](CO)N1C[C@H](C)[C@H](CN(C)S(=O)(=O)c2cccs2)Oc2c(NC(=O)Nc3ccc(C(F)(F)F)cc3)cccc2C1=O`, the AC50 (commonly the concentration giving half of the maximal activity seen) in assay [1] is 4.19 µM (active). Turning to `C[C@H](CO)N1C[C@H](C)[C@@H](CN(C)Cc2ccc(C(=O)Nc3ccccc3N)cc2)Oc2c(NC(=O)c3nc4ccccc4s3)cccc2C1=O`, in assay [1], the half-maximal activity concentration (AC50) is 1.6 µM (active). Consider `CCOC(=O)c1c(C)n(C(=O)c2ccco2)c(=O)n1C(=O)c1ccco1`, for which the half-inhibitory concentration (IC50) (as a rule, the midpoint of a concentration-inhibition curve) was 0.533 µM (active) in [2] and 11 µM (inactive) in [3]. Consider `Nc1cc[n+]([O-])cc1CCc1ccccc1`, for which the IC50 in assay [3] is 23.3 µM (inactive).

In the case of `Cc1ccc(C(=O)N2CC(C)CC(C)C2)cc1NC1=NC2CS(=O)(=O)CC2S1` (stereo not given), in assay [3], the IC50 is 14.3 µM (inactive). As for `C[C@H]1CN([C@@H](C)CO)C(=O)c2cccc(NC(=O)CCCCCC(=O)Nc3ccccc3N)c2O[C@H]1CN(C)S(=O)(=O)c1ccc(Cl)cc1`, in [1], the half-maximal activity concentration (AC50) is 3.53 µM (active). As to `Nc1ncnc2c1ncn2[C@@H]1O[C@H](CNCc2ccc(OCC(=O)Nc3ccccn3)cc2)[C@@H](O)[C@H]1O`, in assay [4], the AC50 was > 100 µM (inactive). Consider `COC(=O)c1ccc(CSc2nnc(-c3c[nH]c4ccccc34)n2C)o1`, for which the IC50 in assay [3] is 13.8 µM (inactive). Regarding `CCCCN=C(S)Nc1ccc2nc(N3CCN(CC)CC3)cc(C)c2c1`, the concentration at half-maximal activity (AC50) in [5] was 25.9 µM (active).

For `C[C@@H]1CCCCO[C@@H](CN(C)C(=O)Nc2ccc(C(F)(F)F)cc2)[C@@H](C)CN([C@H](C)CO)C(=O)c2cc(NC(=O)Cc3ccccc3)ccc2O1`, the AC50 in [1] was 4.33 µM (active). For the compound `O=C(O)c1ccc2c(c1)C(=O)N(c1ccc(Nc3ccccc3)cc1)C2=O`, the AC50 in assay [6] was 25.8 µM (active); in [4], > 100 µM (inactive). For `O=C(Cc1ccc(NC(=O)C2CCN(C(=O)c3ccccc3)CC2)cc1)Nc1ccc(C(=O)N2CCOCC2)cc1`, the half-maximal inhibitory concentration (IC50) in assay [3] is 6.48 µM (active).

In the case of `CCc1cccc(NC(=O)CN2C(=O)NC3(CCCCCCC3)C2=O)c1`, the AC50 in [4] is > 100 µM (inactive). For `O=C(CN1C(=O)NC2(CCCc3ccccc32)C1=O)c1ccc(Br)cc1` (stereo not given), in assay [4], the AC50 is > 100 µM (inactive). Turning to `CCCCSc1cc(O)nc(N)n1`, the IC50 in assay [3] was 22.2 µM (inactive). Consider `Cc1cccc(S(=O)(=O)Nc2nc3ccccc3nc2Nc2cccc(C(=O)O)c2)c1`, for which, in assay [4], the concentration at half-maximal activity (AC50) was 91.1 µM (active). As for `COc1ccc(F)cc1CN1CCN(C(=O)CCC(=O)Nc2nnc(CC(C)C)s2)CC1`, the EC50 – broadly, the concentration at which the effect is half-maximal – in [7] was > 150 µM (inconclusive); in assay [8], > 150 µM (inconclusive); in assay [9], > 150 µM (not active); in assay [10] it was > 133 µM (inactive); in assay [11] it was > 150 µM (not active). Regarding `O=C(CS(=O)(=O)Cc1ccccc1)Nc1ccc(S(=O)(=O)N2CCCCCC2)cc1`, in [12], the EC50 is 4.62 µM (active). In addition, the AC50 in [4] was 80.8 µM (active).
